Tested on: HCV genotype 1b replicon cells (Huh-luc)
Assay: HCV 1b replicon combination study (luciferase, MacSynergy II analysis)
Assay type: cell-based
Details: for Interaction: combination of Compound 1 and Compound 2, MacSynergy II
Description: HCV genotype 1b replicon cells (Huh-luc) were obtained from Reblikon (Mainz, Germany). The replicon in these cells is designated I389luc-ubi-neo/NS3-3′/ET and encodes a selectable resistance marker (neomycin phosphotransferase) as well as the firefly luciferase reporter gene. Huh-luc cells were maintained in Dulbecco's Modified Eagle's Medium (DMEM; GIBCO, Carlsbad, Calif.) supplemented with 10% fetal bovine serum (FBS; Hyclone, Logan, Utah) and 0.5 mg/mL of G-418 (GIBCO). Cells were passaged twice a week and maintained at subconfluent levels.
Replicon cells were seeded in 96-well plates at a density of 5×10^3 cells per well in 100 μL of DMEM culture medium, excluding G-418. Compounds 1 and 2 were serially diluted 1:3 in 100% DMSO (Sigma). These serial dilutions were added to the cells at a 1:200 dilution to achieve a final concentration of 0.5% DMSO in a total volume of 200 μL. Plates were incubated at 37° C. for 3 days, after which culture media were removed and cells were lysed and assayed for luciferase activity using a commercial luciferase assay (Promega, Madison, Wis.). HCV replication levels in drug-treated samples were expressed as a percentage of those in untreated controls (defined as 100%), and data were fit to the logistic dose response equation y=a/(1+(x/b)c) using XLFit4 software (IDBS, Emeryville, Calif.). EC50 values were calculated from the resulting equations as described previously (Delaney, W. E., et al., Antimicrobial Agents Chemotherapy, 45(6):1705-1713 (2001)). Replicon cells were seeded in 96-well plates at a density of 5×10^3 cells per well in 100 μL of culture medium. Compounds 1 and 2 were serially diluted in 100% DMSO as described above and added in a matrix format to 96-well plates, achieving a defined set of different drug concentrations and ratios in a final volume of 200 μL and a final DMSO concentration of 0.5%. […] Cells were incubated for three days and analyzed for luciferase expression as indicated above. […]
The calculated volumes of surface deviations are expressed in nM^2%. […]

CC(C)(C)NC(=O)N[C@H](C(=O)N1C[C@H]2[C@@H]([C@H]1C(=O)NC(CC1CCC1)C(=O)C(N)=O)C2(C)C)C(C)(C)C (stereo partly drawn) [Compound 2, (1R,2S,5S)-3-[N-(N-tert-Butylcarbamoyl)-3-methyl-L-valyl]-N-(2-cyclobutyl-1-oxamoylethyl)-6,6-dimethyl-3-azabicyclo[3.1.0]hexane-2-carboxamide]
Interaction: Moderate synergy | Antagonism Volume (in combination with Compound 1, 3 days, mean ± SD of two or three independent experiments in triplicate): −8.0 ± 13.6 nM^2

Fc1ccccc1-c1nc2ccn(Cc3ccc(-c4ccc(C(F)(F)F)cc4C(F)(F)F)nn3)cc-2n1 [Compound 1, 5-({6-[2,4-bis(trifluoromethyl)phenyl]pyridazin-3-yl}methyl)-2-(2-fluorophenyl)-5H-imidazo[4,5-c]pyridine]
Interaction: moderate synergistic interaction
